Laboratory results from patent US7902229B2, “Anthranilamide pyridinureas as vascular endothelial growth factor (VEGF) receptor kinase inhibitors” (Bayer Schering Pharma AG, priority 2004, dated 2011).

How the values were obtained:
KDR-Kinase (VEGFR-2) = molecular target: T1, KDR-Kinase (VEGFR-2) (Homo sapiens, UniProt P35968); test: KDR Kinase Inhibition; format: biochemical; conditions: GST-kinase domain fusion construct of the KDR kinase; poly(Glu4Tyr) substrate, 32P-ATP, 10 min
T1 construct: GST-kinase domain fusion construct of the KDR kinase; GST
T1 sequence (P35968 834-1162 limits assumed, species assumed): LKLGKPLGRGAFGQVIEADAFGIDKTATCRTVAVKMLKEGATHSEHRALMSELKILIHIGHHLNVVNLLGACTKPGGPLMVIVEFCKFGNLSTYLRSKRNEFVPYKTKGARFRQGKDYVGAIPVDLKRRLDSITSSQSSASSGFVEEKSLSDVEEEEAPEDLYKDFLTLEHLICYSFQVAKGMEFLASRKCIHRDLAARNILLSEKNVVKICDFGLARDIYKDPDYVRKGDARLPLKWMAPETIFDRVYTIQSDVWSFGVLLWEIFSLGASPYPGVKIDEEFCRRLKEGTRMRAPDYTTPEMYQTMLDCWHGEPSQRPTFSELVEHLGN
Description: Kinase activity was measured with a GST-kinase domain fusion construct of the KDR kinase according to the following protocol to obtain concentration response curves. Components were added into a microtiterplate in the following sequence: 10 μl of inhibitor in threefold final concentration [3% DMSO in buffer (40 mM TrisCl pH 7.5; 1 mM DTT, 1 mM MnCl2, 10 mM MgCl2, 2.5 Promille Polyethyleneglycol 20000)] and 10 μ, of substrate mixture [24 μM ATP, 24 μg/ml poly(Glu4Tyr) in buffer, specific activity approx. 500 cpm/pmol ^32P-[…]ATP]. Reaction was started by adding 10 μl of enzyme preparation diluted appropriately in buffer that contains 10 μM vanadate. After incubation for exactly 10 min the reaction was stopped by adding of 10 μl stop solution (250 mM EDTA). 10 μl of the reaction mixture were transferred to phosphocellulose filters. The filters were washed in 0.1% phosphoric acid, dried before meltilex-scintillator was applied (Wallac, Perkin-Elmer) and the radioactivity was counted.

[1] = molecular target: T2, human Cytochrome P 450 isoenzyme 2C9 (Homo sapiens, UniProt P11712); test: Cytochrome P450 Inhibition (2C9); format: in vitro ADME; conditions: baculovirus/insect cell-expressed human isoenzyme, according to Crespi et al.; read-out: IC50 CYP 2C9
T2 construct: host or cells: baculovirus/insect cells
T2 sequence (P11712 whole entry): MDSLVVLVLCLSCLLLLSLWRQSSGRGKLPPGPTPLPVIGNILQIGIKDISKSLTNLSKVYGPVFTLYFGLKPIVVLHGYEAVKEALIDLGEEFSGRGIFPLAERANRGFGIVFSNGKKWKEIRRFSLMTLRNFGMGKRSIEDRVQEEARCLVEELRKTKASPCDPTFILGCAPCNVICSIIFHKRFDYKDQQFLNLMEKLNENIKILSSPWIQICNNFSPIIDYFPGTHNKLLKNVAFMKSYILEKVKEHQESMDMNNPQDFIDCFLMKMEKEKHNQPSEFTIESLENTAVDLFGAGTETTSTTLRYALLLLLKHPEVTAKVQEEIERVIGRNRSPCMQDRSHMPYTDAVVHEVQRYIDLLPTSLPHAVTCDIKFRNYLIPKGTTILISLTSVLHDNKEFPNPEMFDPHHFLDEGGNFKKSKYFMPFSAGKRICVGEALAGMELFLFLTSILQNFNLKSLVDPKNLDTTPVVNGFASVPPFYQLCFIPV
Description: (§1) Cytochrome P450 Inhibition
(§2) The Cytochrome P450 isoenzyme inhibition was performed according to the publication of Crespi et al. (Anal. Biochem., 1997, 248, 188-190) with use of the baculovirus/insect cell-expressed, human Cytochrome P 450 isoenzymes (2C9 and 2C19).

[2] = molecular target: T3, human Cytochrome P 450 isoenzyme 2C19 (Homo sapiens, UniProt P33261); test: Cytochrome P450 Inhibition (2C19); format: in vitro ADME; conditions: baculovirus/insect cell-expressed human isoenzyme, according to Crespi et al.; read-out: IC50 CYP 2C19
T3 construct: host or cells: baculovirus/insect cells
T3 sequence (P33261 whole entry): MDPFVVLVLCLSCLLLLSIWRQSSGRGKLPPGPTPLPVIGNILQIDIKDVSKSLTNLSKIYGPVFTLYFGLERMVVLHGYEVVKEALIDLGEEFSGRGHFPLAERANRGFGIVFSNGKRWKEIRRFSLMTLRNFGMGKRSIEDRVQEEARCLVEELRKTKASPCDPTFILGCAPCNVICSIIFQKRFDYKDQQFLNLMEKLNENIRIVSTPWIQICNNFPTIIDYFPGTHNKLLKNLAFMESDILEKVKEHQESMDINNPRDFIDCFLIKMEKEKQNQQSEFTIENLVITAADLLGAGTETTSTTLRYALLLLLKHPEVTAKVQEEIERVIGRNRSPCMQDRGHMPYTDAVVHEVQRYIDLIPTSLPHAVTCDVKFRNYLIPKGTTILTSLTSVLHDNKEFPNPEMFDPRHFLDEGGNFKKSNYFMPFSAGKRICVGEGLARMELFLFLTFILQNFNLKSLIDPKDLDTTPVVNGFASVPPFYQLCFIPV
Description: as §1, §2

Row | Compound | IC50 (KDR-Kinase (VEGFR-2)) [µM] | IC50 [1] [µM] | IC50 [2] [µM] | melting point [°C]
1 | CN(C)C(=O)Nc1cc(CNc2ccccc2C(=O)Nc2ccc3cn(C)nc3c2)ccn1 [Example 1.0, 2-{[2-(3,3-dimethyl-ureido)-pyridin-4-ylmethyl]-amino}-N-(2-methyl-2H-indazol-6-yl)-benzamide] | 0.025 | 6.7 | 19 | 184
2 | CN(C)C(=O)Nc1cc(CNc2ccccc2C(=O)Nc2ccc3c(ccc(=O)n3C)c2)ccn1 [Example 2.2, 2-{[2-(3,3-dimethyl-ureido)-pyridin-4-ylmethyl]-amino}-N-(1-methyl-2-oxo-1,2-dihydro-quinolin-6-yl)-benzamide] | 0.036 | 10 | 6.4 | –
3 | CCN(CC)C(=O)Nc1cc(CNc2ccccc2C(=O)Nc2ccc3cn(C)nc3c2)ccn1 [Example 1.1, 2-{[2-(3,3-diethyl-ureido)-pyridin-4-ylmethyl]-amino}-N-(2-methyl-2H-indazol-6-yl)-benzamide] | 0.035 | 3.8 | 9.9 | –
4 | CCN(C)C(=O)Nc1cc(CNc2ccccc2C(=O)Nc2ccc3cn(C)nc3c2)ccn1 [Example 1.4, 2-{[2-(3-ethyl-3-methyl-ureido)-pyridin-4-ylmethyl]-amino}-N-(2-methyl-2H-indazol-6-yl)-benzamide] | 0.024 | 6.6 | 26 | –
